# Measured values taken from patent US8354403B2, “Pyrrolidine derived beta 3 adrenergic receptor agonists” (Merck Sharp & Dohme Corp., priority 2009, dated 2013).
# Molecular target: T1, human β3 adrenergic receptor (Homo sapiens, UniProt P13945)
# T1 construct: expressed in transfected cells; host or cells: Chinese hamster ovary (CHO) cells, stably transfected
# Assay: Beta-3 agonist in vitro functional assay: cAMP production (LANCE TR-FRET) in CHO cells stably transfected with the cloned β3 receptor
# Format: cell-based
# Settings: Table 4; cAMP, CHO cells; read-out: Human β3 agonist functional activity
# In short: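 CHO cells stably expressing the cloned receptor, in HEPES-buffered HBSS with BSA and 0.6 mM IBMX, 6,000 cells/well, exposed to compound for 30 min at RT. cAMP read by LANCE TR-FRET against a cAMP standard curve. Isoproterenol defines maximal stimulation.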
# T1 sequence (P13945 whole entry): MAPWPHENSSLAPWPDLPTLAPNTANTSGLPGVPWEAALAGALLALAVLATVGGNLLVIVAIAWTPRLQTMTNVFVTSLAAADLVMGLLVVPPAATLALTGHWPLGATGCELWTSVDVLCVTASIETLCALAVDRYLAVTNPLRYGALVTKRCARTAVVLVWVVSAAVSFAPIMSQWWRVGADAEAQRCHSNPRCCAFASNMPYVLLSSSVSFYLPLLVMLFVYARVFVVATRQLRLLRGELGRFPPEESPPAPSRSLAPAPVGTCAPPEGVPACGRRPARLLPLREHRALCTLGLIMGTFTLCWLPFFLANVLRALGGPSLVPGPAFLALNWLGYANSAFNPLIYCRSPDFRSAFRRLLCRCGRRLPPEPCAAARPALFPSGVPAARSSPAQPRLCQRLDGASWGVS
row,SMILES,EC50 [nM]
1,CC1(C)CC2(CCCN(C(=O)c3ccc(C[C@@H]4CC[C@H]([C@H](O)c5ccccc5)N4)cc3)C2)C(=O)O1 (stereo partly drawn) [Example 41],10 to 99.9
2,CCOC(=O)C1(S(C)(=O)=O)CCCN(C(=O)c2ccc(C[C@@H]3CC[C@H]([C@H](O)c4ccccc4)N3)cc2)C1 (stereo partly drawn) [Example 36],10 to 99.9
3,Cn1ccnc1C1CCCCN1C(=O)c1ccc(C[C@@H]2CC[C@H]([C@H](O)c3ccccc3)N2)cc1 (stereo partly drawn) [Example 51],100 to 999
4,O=C(c1ccc(C[C@@H]2CC[C@H]([C@H](O)c3cccnc3)N2)cc1)N1CCC2Oc3ccccc3OC2C1 (stereo partly drawn) [Example 59],10 to 99.9
5,CCOC(=O)C1(F)CCCN(C(=O)c2ccc(C[C@@H]3CC[C@H]([C@H](O)c4ccccc4)N3)cc2)C1 (stereo partly drawn) [Example 37],100 to 999
6,O=C(c1ccc(C[C@@H]2CC[C@H]([C@H](O)c3ccccc3)N2)cc1)N1CCCC1c1nccs1 (stereo partly drawn) [Example 15],100 to 999
7,CCOC(=O)C1CCCCN1C(=O)c1ccc(C[C@@H]2CC[C@H]([C@H](O)c3ccccc3)N2)cc1 (stereo partly drawn) [Example 48],100 to 999
8,O=C(c1ccc(C[C@@H]2CC[C@H]([C@H](O)c3ccccc3)N2)cc1)N1CCC2c3cccnc3OC2C1 (stereo partly drawn) [Example 58],10 to 99.9

# Same assay, conditions: Table 5; cAMP, CHO cells; read-out: Human β3 agonist functional activity
row,SMILES,EC50 [nM]
1,Cc1cn(C2CCN(C(=O)c3ccc(C[C@@H]4CC[C@H]([C@H](O)c5ccccc5)N4)cc3)CC2)nn1 [Example 95],10 to 99.9
2,O=C(c1ccc(C[C@@H]2CC[C@H]([C@H](O)c3ccccc3)N2)cc1)N1CCC(c2ncc(-c3ccccc3)[nH]2)CC1 [Example 79],100 to 999
3,O=C(c1ccc(C[C@@H]2CC[C@H]([C@H](O)c3ccccc3)N2)cc1)N1CCC(N2C(=O)OCc3ccccc32)CC1 [Example 69],1 to 9.9

# Same assay, conditions: Table 8; Beta-3 agonist in vitro functional assay; read-out: Human β3 agonist functional activity
row,SMILES,EC50 [nM]
1,O=C(c1ccc(C[C@@H]2CC[C@H]([C@H](O)c3cccnc3)N2)cc1)N1CCC2(CC1)SCc1ccccc12 [Example 301],100 to 999
2,O=C(c1ccc(C[C@@H]2CC[C@H]([C@H](O)c3ccccc3)N2)cc1)N1CCC(O)(Cc2ccccc2)CC1 [Example 245],10 to 99.9
3,O=C(c1ccc(C[C@@H]2CC[C@H]([C@H](O)c3ccccc3)N2)cc1)N1CCC2(CC1)Nc1ccccc1S(=O)(=O)N2 [Example 334],1 to 9.9
4,O=C(c1ccc(C[C@@H]2CC[C@H]([C@H](O)c3ccccc3)N2)cc1)N1CCC2(CC1)C(=O)NCC2c1ccccc1 (stereo partly drawn) [Example 261],< 1
5,Cn1nnnc1C1(C)CCN(C(=O)c2ccc(C[C@@H]3CC[C@H]([C@H](O)c4ccccc4)N3)cc2)CC1 [Example 244],100 to 999
6,CCN1CCC2(CCN(C(=O)c3ccc(C[C@@H]4CC[C@H]([C@H](O)c5ccccc5)N4)cc3)CC2)C1=O [Example 252],100 to 999
7,CC1CC2(CCN(C(=O)c3ccc(C[C@@H]4CC[C@H]([C@H](O)c5ccccc5)N4)cc3)CC2)OC1=O (stereo partly drawn) [Example 274],10 to 99.9
8,O=C1CC2(CCN(C(=O)c3ccc(C[C@@H]4CC[C@H]([C@H](O)c5ccccc5)N4)cc3)CC2)Oc2ccc(-c3nnn[nH]3)cc21 [Example 325],10 to 99.9
9,O=C1Nc2ncccc2C2(CCN(C(=O)c3ccc(C[C@@H]4CC[C@H]([C@H](O)c5ccccc5)N4)cc3)CC2)O1 [Example 330],10 to 99.9

# Same assay, conditions: Table 9; Beta-3 agonist in vitro functional assay; read-out: Human β3 agonist functional activity
row,SMILES,EC50 [nM]
1,O=C(O)c1cccnc1N1CCN(C(=O)c2ccc(C[C@@H]3CC[C@H]([C@H](O)c4ccccc4)N3)cc2)CC1 [Example 365],100 to 999
2,O=C(c1ccc(C[C@@H]2CC[C@H]([C@H](O)c3cccnc3)N2)cc1)N1CCN(c2nccc(-c3ccccc3)n2)CC1 [Example 377],10 to 99.9
3,O=C(c1ccc(C[C@@H]2CC[C@H]([C@H](O)c3ccccc3)N2)cc1)N1CCN(Cc2noc3ccccc23)CC1 [Example 407],1 to 9.9
4,O=C(c1ccc(C[C@@H]2CC[C@H]([C@H](O)c3ccccc3)N2)cc1)N1CCN(Cc2nc3ccccc3s2)CC1 [Example 404],10 to 99.9
5,CC(c1cnccn1)N1CCN(C(=O)c2ccc(C[C@@H]3CC[C@H]([C@H](O)c4ccccc4)N3)cc2)CC1 (stereo partly drawn) [Example 428],10 to 99.9
6,O=C(c1ccc(C[C@@H]2CC[C@H]([C@H](O)c3ccccc3)N2)cc1)N1CCN(Cc2ncccc2F)CC1 [Example 418],10 to 99.9
7,O=C(c1ccc(C[C@@H]2CC[C@H]([C@H](O)c3ccccc3)N2)cc1)N1CCN(Cc2ccn[nH]2)CC1 [Example 395],10 to 99.9

# Same assay, conditions: Table 10; Beta-3 agonist in vitro functional assay; read-out: Human β3 agonist functional activity
row,SMILES,EC50 [nM]
1,CC(C(=O)N1CC=CCC1)N1CCN(C(=O)c2ccc(C[C@@H]3CC[C@H]([C@H](O)c4ccccc4)N3)cc2)CC1 (stereo partly drawn) [Example 492],10 to 99.9
2,CC(C(=O)NC1CCOC1)N1CCN(C(=O)c2ccc(C[C@@H]3CC[C@H]([C@H](O)c4ccccc4)N3)cc2)CC1 (stereo partly drawn) [Example 457],10 to 99.9
3,CC(C(=O)NCc1cnoc1)N1CCN(C(=O)c2ccc(C[C@@H]3CC[C@H]([C@H](O)c4ccccc4)N3)cc2)CC1 (stereo partly drawn) [Example 461],10 to 99.9
4,CCc1noc(CNC(=O)C(C)N2CCN(C(=O)c3ccc(C[C@@H]4CC[C@H]([C@H](O)c5ccccc5)N4)cc3)CC2)n1 (stereo partly drawn) [Example 465],10 to 99.9
5,CCN(CCO)C(=O)C(C)N1CCN(C(=O)c2ccc(C[C@@H]3CC[C@H]([C@H](O)c4ccccc4)N3)cc2)CC1 (stereo partly drawn) [Example 520],10 to 99.9
6,CC(C(=O)N1CCn2ccnc2C1)N1CCN(C(=O)c2ccc(C[C@@H]3CC[C@H]([C@H](O)c4ccccc4)N3)cc2)CC1 (stereo partly drawn) [Example 502],10 to 99.9
7,CC(C(=O)N1CCC[C@@H]1C)N1CCN(C(=O)c2ccc(C[C@@H]3CC[C@H]([C@H](O)c4ccccc4)N3)cc2)CC1 (stereo partly drawn) [Example 480],10 to 99.9
8,CCN(CC)C(=O)C(C)N1CCN(C(=O)c2ccc(C[C@@H]3CC[C@H]([C@H](O)c4ccccc4)N3)cc2)CC1 (stereo partly drawn) [Example 516],100 to 999
9,CC(C(=O)N1C[C@@H]2C[C@H]1CO2)N1CCN(C(=O)c2ccc(C[C@@H]3CC[C@H]([C@H](O)c4ccccc4)N3)cc2)CC1 (stereo partly drawn) [Example 500],10 to 99.9
10,CC(C(=O)NC1CCNC1=O)N1CCN(C(=O)c2ccc(C[C@@H]3CC[C@H]([C@H](O)c4ccccc4)N3)cc2)CC1 (stereo partly drawn) [Example 458],100 to 999

# Same assay, conditions: Table 11; cAMP, CHO cells; read-out: Human β3 agonist functional activity
row,SMILES,EC50 [nM]
1,CC(c1ccccn1)N1C2CCC1CN(C(=O)c1ccc(CC3CCC(C(O)c4ccccc4)N3)cc1)C2 (stereo not drawn) [Example 539],10 to 99.9
2,O=C(c1ccc(C[C@@H]2CC[C@H]([C@H](O)c3ccccc3)N2)cc1)N1CC2CC1CN2Cc1ccccn1 (stereo partly drawn) [Example 534],100 to 999
3,C[C@@H]1CN(C(=O)c2ccc(C[C@@H]3CC[C@H]([C@H](O)c4ccccc4)N3)cc2)CCN1Cc1ccccn1 [Example 527],10 to 99.9
4,C[C@H]1CN(C(=O)c2ccc(C[C@@H]3CC[C@H]([C@H](O)c4ccccc4)N3)cc2)CCN1Cc1n[nH]c2ccccc12 [Example 532],10 to 99.9

# Same assay, conditions: Table 12; human β3 functional activity given as ranges; read-out: Human β3 agonist functional activity
row,SMILES,EC50 [nM]
1,"CC(c1nccs1)N1CCN(C(=O)c2ccc(CC3CCC(C(O)c4ccccc4)N3)cc2)CC1 (single isomer, unassigned) [Example 581]",1 to 9.9
2,"CC(c1ncco1)N1CCN(C(=O)c2ccc(CC3CCC(C(O)c4ccccc4)N3)cc2)CC1 (single isomer, unassigned) [Example 583]",10 to 99.9
3,"CC(c1ccn(C)n1)N1CCN(C(=O)c2ccc(CC3CCC(C(O)c4ccccc4)N3)cc2)CC1 (single isomer, unassigned) [Example 578]",100 to 999

# Same assay, conditions: given as a range; cAMP, CHO cells; read-out: human β3 functional activity
row,SMILES,EC50 [nM]
1,"O=C(c1ccc(C[C@@H]2CC[C@H]([C@H](O)c3ccccc3)N2)cc1)N1CCC(n2cccn2)CC1 [Example 64, (R)-phenyl[(2R,5S)-5-(4-{[4-(1H-pyrazol-1-yl)-piperidin-1-yl]carbonyl}benzyl)pyrrolidine-2-yl]methanol]",10 to 99.9
